Test results reported in the supplement of paper PMC11061612.

How the values were obtained:
Capivasertib = compound: C1CN(CCC1(C(=O)N[C@@H](CCO)C2=CC=C(C=C2)Cl)N)C3=NC=NC4=C3C=CN4 [Capivasertib]; details: max 10 µM
Procedure, shortened: (§1)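 Plates with 1536 wells received cancer cell lines in 7.5 μl of DMEM/F12 or RPMI containing 10% FBS. After 24 hours at 37°C and 5% CO2, cells were dosed for 72 hours with final DMSO typically 0.2%, and viability was read by CellTiter-Glo 2.0 luminescence scaled between blank-well and DMSO-well means. The single-agent IC50 was taken from a logistic fit of the dose responses made with a non-linear mixed effects model, that logistic curve having two parameters.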

AZD1775 = compound: C=CCn1c(=O)c2cnc(Nc3ccc(N4CCN(C)CC4)cc3)nc2n1-c1cccc(C(C)(C)O)n1 [AZD1775]; details: max 3 µM
Procedure, shortened: as §1

Trametinib = compound: CC(=O)Nc1cccc(-n2c(=O)n(C3CC3)c(=O)c3c(Nc4ccc(I)cc4F)n(C)c(=O)c(C)c32)c1 [Trametinib]; details: max 1 µM
Procedure, shortened: as §1

Palbociclib = compound: CC(=O)c1c(C)c2cnc(Nc3ccc(N4CCNCC4)cn3)nc2n(C2CCCC2)c1=O [Palbociclib]; details: max 10 µM
Procedure, shortened: as §1

AZD1390 = compound: CC(C)n1c(=O)n(C)c2cnc3cc(F)c(-c4ccc(OCCCN5CCCCC5)nc4)cc3c21 [AZD1390]; details: max 0.3 µM
Procedure, shortened: as §1

Venetoclax = compound: CC1(C)CCC(CN2CCN(c3ccc(C(=O)NS(=O)(=O)c4ccc(NCC5CCOCC5)c([N+](=O)[O-])c4)c(Oc4cnc5[nH]ccc5c4)c3)CC2)=C(c2ccc(Cl)cc2)C1 [Venetoclax]; details: max 1 µM
Procedure, shortened: as §1

Dasatinib = compound: CC1=C(C(=CC=C1)Cl)NC(=O)C2=CN=C(S2)NC3=CC(=NC(=N3)C)N4CCN(CC4)CCO [Dasatinib]; details: max 2 µM
Procedure, shortened: as §1

AZD2811 = compound: CCN(CCO)CCCOc1ccc2c(Nc3cc(CC(=O)Nc4cccc(F)c4)[nH]n3)ncnc2c1 [AZD2811]; details: max 1 µM
Procedure, shortened: as §1

SN-38 = compound: CCc1c2c(nc3ccc(O)cc13)-c1cc3c(c(=O)n1C2)COC(=O)[C@]3(O)CC [SN-38]; details: max 0.3 µM
Procedure, shortened: as §1

AZD0156 = compound: CN(C)CCCOc1ccc(-c2ccc3ncc4c(c3c2)n(C2CCOCC2)c(=O)n4C)cn1 [AZD0156]; details: max 3 µM
Procedure, shortened: as §1

AZD4320 = compound: CN(CC[C@H](CSC1=CC=CC=C1)NC2=C(C=C(C=C2)S(=O)(=O)NC(=O)C3=CC=C(C=C3)N4CCC(CC4)[C@H](C5=CC=CC=C5C6=CC=C(C=C6)Cl)O)S(=O)(=O)C(F)(F)F)CCO [AZD4320]; details: max 1 µM
Procedure, shortened: as §1

Alisertib = compound: COc1cc(Nc2ncc3c(n2)-c2ccc(Cl)cc2C(c2c(F)cccc2OC)=NC3)ccc1C(=O)O [Alisertib]; details: max 10 µM
Procedure, shortened: as §1

Gefitinib = compound: COc1cc2ncnc(Nc3ccc(F)c(Cl)c3)c2cc1OCCCN1CCOCC1 [Gefitinib]; details: max 10 µM
Procedure, shortened: as §1

Prexasertib = compound: COc1cccc(OCCCN)c1-c1cc(Nc2cnc(C#N)cn2)n[nH]1 [Prexasertib]; details: max 1 µM
Procedure, shortened: as §1

AZD5153 = compound: COc1nnc2ccc(N3CCC(c4ccc(OCCN5CCN(C)C(=O)[C@H]5C)cc4)CC3)nn12 [AZD5153]; details: max 1 µM
Procedure, shortened: as §1

Lapatinib = compound: CS(=O)(=O)CCNCc1ccc(-c2ccc3ncnc(Nc4ccc(OCc5cccc(F)c5)c(Cl)c4)c3c2)o1 [Lapatinib]; details: max 10 µM
Procedure, shortened: as §1

AZD8186 = compound: C[C@@H](Nc1cc(F)cc(F)c1)c1cc(C(=O)N(C)C)cc2c(=O)cc(N3CCOCC3)oc12 [AZD8186]; details: max 3 µM
Procedure, shortened: as §1

Crizotinib = compound: C[C@@H](Oc1cc(-c2cnn(C3CCNCC3)c2)cnc1N)c1c(Cl)ccc(F)c1Cl [Crizotinib]; details: max 10 µM
Procedure, shortened: as §1

Savolitinib = compound: C[C@@H](c1ccc2nccn2c1)n1nnc2ncc(-c3cnn(C)c3)nc21 [Savolitinib]; details: max 1 µM
Procedure, shortened: as §1

AZD6738 = compound: C[C@@H]1COCCN1C2=NC(=NC(=C2)C3(CC3)[S@](=N)(=O)C)C4=C5C=CNC5=NC=C4 [AZD6738]; details: max 10 µM
Procedure, shortened: as §1

AZD5991 = compound: Cc1c2c(nn1C)CSCc1cc(n(C)n1)CSc1cc(c3ccccc3c1)OCCCc1c(C(=O)O)n(C)c3c-2c(Cl)ccc13 [AZD5991]; details: max 1 µM
Procedure, shortened: as §1

AZD7648 = compound: Cc1cc2ncnn2cc1Nc1ncc2c(n1)n(C1CCOCC1)c(=O)n2C [AZD7648]; details: max 10 µM
Procedure, shortened: as §1

Taselisib = compound: Cc1nc(-c2cn3c(n2)-c2ccc(-c4cnn(C(C)(C)C(N)=O)c4)cc2OCC3)n(C(C)C)n1 [Taselisib]; details: max 10 µM
Procedure, shortened: as §1

Selumetinib = compound: Cn1cnc2c(F)c(Nc3ccc(Br)cc3Cl)c(C(=O)NOCCO)cc21 [Selumetinib]; details: max 10 µM
Procedure, shortened: as §1

MK-2206 = compound: NC1(c2ccc(-c3nc4ccn5c(=O)[nH]nc5c4cc3-c3ccccc3)cc2)CCC1 [MK-2206]; details: max 10 µM
Procedure, shortened: as §1

Olaparib = compound: O=C(c1cc(Cc2n[nH]c(=O)c3ccccc23)ccc1F)N1CCN(C(=O)C2CC2)CC1 [Olaparib]
Procedure, shortened: as §1

SG3199 = compound: CC1=CN2[C@@H](C1)C=NC3=CC(=C(C=C3C2=O)OC)OCCCCCOC4=C(C=C5C(=C4)N=C[C@@H]6CC(=CN6C5=O)C)OC [SG3199]; details: max 0.001 µM
Procedure, shortened: as §1

Doxorubicin = compound: COc1cccc2c1C(=O)c1c(O)c3c(c(O)c1C2=O)C[C@@](O)(C(=O)CO)C[C@@H]3O[C@H]1C[C@H](N)[C@H](O)[C@H](C)O1 [Doxorubicin]; details: max 1 µM
Procedure, shortened: as §1

Cell Line	IC50, cell viability 72 h (Capivasertib)	IC50, cell viability 72 h (AZD1775)	IC50, cell viability 72 h (Trametinib)	IC50, cell viability 72 h (Palbociclib)	IC50, cell viability 72 h (AZD1390)	IC50, cell viability 72 h (Venetoclax)	IC50, cell viability 72 h (Dasatinib)	IC50, cell viability 72 h (AZD2811)	IC50, cell viability 72 h (SN-38)	IC50, cell viability 72 h (AZD0156)	IC50, cell viability 72 h (AZD4320)	IC50, cell viability 72 h (Alisertib)	IC50, cell viability 72 h (Gefitinib)	IC50, cell viability 72 h (Prexasertib)	IC50, cell viability 72 h (AZD5153)	IC50, cell viability 72 h (Lapatinib)	IC50, cell viability 72 h (AZD8186)	IC50, cell viability 72 h (Crizotinib)	IC50, cell viability 72 h (Savolitinib)	IC50, cell viability 72 h (AZD6738)	IC50, cell viability 72 h (AZD5991)	IC50, cell viability 72 h (AZD7648)	IC50, cell viability 72 h (Taselisib)	IC50, cell viability 72 h (Selumetinib)	IC50, cell viability 72 h (MK-2206)	IC50, cell viability 72 h (Olaparib; max 3 µM)	IC50, cell viability 72 h (SG3199)	IC50, cell viability 72 h (Doxorubicin)	IC50, cell viability 72 h (Olaparib; max 10 µM)
OAW-42 (Ovarian Carcinoma)	> 10000 nM	> 3000 nM	> 1000 nM	> 10000 nM	> 300 nM	> 1000 nM	909 nM	> 1000 nM	29.5 nM	> 3000 nM	> 1000 nM	4550 nM	> 10000 nM	463 nM	> 1000 nM	> 10000 nM	> 3000 nM	> 10000 nM	> 1000 nM	> 10000 nM	> 1000 nM	> 10000 nM	441 nM	> 10000 nM	3000 nM	> 3000 nM			
NCI-H446 (Small Cell Lung Carcinoma)	2660 nM	400 nM	> 1000 nM	> 10000 nM	> 300 nM	> 1000 nM	> 2000 nM	42.8 nM	62.6 nM	> 3000 nM	557 nM	54.8 nM	> 10000 nM	19.3 nM	209 nM	6400 nM	> 3000 nM	1720 nM	> 1000 nM	4150 nM	> 1000 nM	> 10000 nM	2860 nM	> 10000 nM	4500 nM		> 1 nM	499 nM	> 10000 nM
LXF-289 (Lung Adenocarcinoma)	> 10000 nM	814 nM	> 1000 nM	> 10000 nM	> 300 nM	> 1000 nM	171 nM	> 1000 nM	> 300 nM	> 3000 nM	> 1000 nM	3390 nM	> 10000 nM	240 nM	377 nM	4860 nM	> 3000 nM	4530 nM	> 1000 nM	> 10000 nM	> 1000 nM	> 10000 nM	> 10000 nM	> 10000 nM			> 1 nM	> 1000 nM	> 10000 nM
A2058 (Melanoma)	> 10000 nM	1230 nM	236 nM	> 10000 nM	> 300 nM	> 1000 nM	> 2000 nM	> 1000 nM	> 300 nM	> 3000 nM	> 1000 nM	1220 nM	> 10000 nM	> 1000 nM	656 nM	8410 nM	> 3000 nM	8250 nM	> 1000 nM	> 10000 nM	> 1000 nM	> 10000 nM	6330 nM	> 10000 nM	> 10000 nM		> 1 nM	> 1000 nM	> 10000 nM
